Patent US9248163B2, “Insulin-like growth factor binding protein 7 for treatment of cancer” (University of Massachusetts, priority 2007, dated 2016)

Assays:
[1] = system: IGFBP7 expression in melanoma cell lines; assay: IGFBP7 mRNA (qRT-PCR) in melanoma cell lines after 5-aza treatment; assay type: cell-based, human; details: 10 μM, 48 hours
Procedure: Total RNA was isolated using TRIZOLTM (Invitrogen) 7 days after retroviral transduction and puromycin selection. Reverse transcription was performed using SuperScriptTM II Reverse Transcriptase (Invitrogen) as per the manufacturer's instructions, followed by quantitative real-time PCR using Platinum SYBRTM Green qPCR SuperMix-UDG with Rox (Invitrogen). Bisulfite modification was carried out essentially as described (Frommer et al., 1992, Proc. Natl. Acad. Sci. USA, 89:1827-31), except that hydroquinone was used at a concentration of 125 mM during bisulfite treatment (carried out in the dark) and DNA was desalted on […] columns (Qiagen) after the bisulfite reaction. Six clones were sequenced for each cell line or human tissue sample. For 5-aza-2'-deoxycytidine (5-aza) treatment, melanoma cell lines were treated with 10 μM 5-aza (Calbiochem) for 48 hours.

[2] = system: SK-MEL-28 cells; assay: Immunoblot analysis of SMARCB1, BNIP3L and activated caspase 3; assay type: cell-based, human; details: 24 hours, unlike rIGFBP7
Procedure: (§1) To prepare cell extracts, cells were lysed in Laemmli buffer; for phospho-proteins, cells were lysed in the presence of a phosphatase inhibitor cocktail (Sigma). To prepare conditioned media, cells were grown in Opti-MEM™ (Invitrogen) for 24 hours, and media was harvested and concentrated using Centricon™ plus 20 tubes (Millipore). Conditioned media was normalized to cell number prior to loading the gel. For the experiments shown in FIGS. 3D and 4C, rIGFBP7 was added to the culture medium at a concentration of 10 μg/ml. For the MEK/RAF inhibitor experiment of FIG. 4D, SK-MEL-28 cells were treated with 2 μg/ml or 10 μg/ml rIGFBP7, 20 μM or 40 μM of the MEK inhibitor PD98054 (Calbiochem), or 5 nM or 10 nM the RAF inhibitor GW5074 (Sigma) for 24 hours prior to harvesting cells. Proteins were resolved by SDS-PAGE and transferred to nitrocellulose. Blots were probed with the following antibodies: α-p16 (Abcam), α-acetylated H3K9 (Upstate), α-IGFBP7 (Santa Cruz), α-SMARCB1 (Abnova), α-BNIP3L (Proscience), α-BRAFV600E (Santa Cruz), α-cleaved caspase-3 p11 (Santa Cruz), α-β-actin (Sigma), α-phospho-ERK (Cell Signaling) or α-ERK (Cell Signaling).

[3] = system: BRAF-MEK-ERK signaling in SK-MEL-28 cells; assay: Immunoblot analysis of BRAF-MEK-ERK signaling (phospho-ERK, activated MEK1/2, RKIP); assay type: cell-based, human; details: SK-MEL-28 cells, 24 hours; PD98054 20 or 40 μM, GW5074 5 or 10 nM
Procedure: as §1
To test this idea, rIGFBP7 was added to BRAFV600E-positive SK-MEL-28 melanoma cells, and the levels of total and activated ERK (phospho-ERK) were analyzed.

[4] = system: NCI 60 panel of human cancer cell lines; assay: Growth inhibition of the NCI 60 panel cell lines by MEK inhibitor; assay type: cell-based
Procedure: The growth dependence of the above cell lines on the Ras-BRAF-MEK-Erk signaling pathway was also determined. 1.5×10^5 cells of each cell line were treated with 20 μM of the MEK inhibitor U0216 (Cell Signaling) for 24 hours, and growth of the cell lines was determined. U0216 inhibited growth in 11/11 (100%) of the cell lines that contained a BRAF mutation and 11/13 (84.6) of the cell lines that contained a RAS mutation. The one cell line that contained both a BRAF and a RAS mutation was susceptible to growth inhibition by U0216.

Nc1ncn([C@H]2C[C@H](O)[C@@H](CO)O2)c(=O)n1 [5-aza-2′-deoxycytidine]
IGFBP7 expression ([1]; BRAF/RAS-wild type cell lines): no effect | IGFBP7 expression ([1]; BRAFV600E- and NRASQ61R-positive cell lines): restored IGFBP7 expression

O=C1Nc2ccc(I)cc2/C1=C/c1cc(Br)c(O)c(Br)c1 [RAF inhibitor, reference compound]
BNIP3L levels and induction of apoptosis [2]: did not increase BINP3L levels or efficiently induce apoptosis | BRAF-MEK-ERK signaling [3]: blocked BRAF-MEK-ERK signaling

N#CC(=C(/N)Sc1ccccc1N)/C(C#N)=C(/N)Sc1ccccc1N [U0216]
cell lines in which growth was inhibited ([4]; cell lines that contained a BRAF mutation (11/11), 20 μM, 24 hours): 100% | cell lines in which growth was inhibited ([4]; cell lines that contained a RAS mutation (11/13), 20 μM, 24 hours): 84.6 | cell lines susceptible to growth inhibition ([4]; cell lines without a BRAF or RAS mutation, 20 μM, 24 hours): 0/34 | susceptibility to growth inhibition ([4]; one cell line with both a BRAF and a RAS mutation): susceptible
